Laboratory results from the SangsterLogP compilation.

Assay: method code SF-AS, from DOI: 10.1002/qsar.19900090404

| Structure (SMILES) | logP |
| --- | --- |
| Cc1ncccn1 | -0.05 |
| CSc1cnccn1 | 1.17 |
| Cc1cncnc1 | 0.01 |
| Cc1ccnnc1 | -0.32 |
| Fc1ccccn1 | 0.84 |
| N#Cc1ccnnc1 | -0.63 |
| N#Cc1cnccn1 | -0.01 |
| CCOc1cncnc1 | 0.56 |
| CCOc1cnccn1 | 1.28 |
| CCOc1ncccn1 | 0.74 |
| Fc1cncnc1 | -0.03 |
| CCCOc1ccccn1 | 2.38 |
| COc1ncccn1 | 0.23 |
| CCOc1ccnnc1 | 0.2 |
| CSc1ncccn1 | 1.01 |
| CN(C)c1ncccn1 | 1.07 |
| Clc1ncccn1 | 0.36 |
| CCc1ccccn1 | 1.6 |
| Fc1ncccn1 | 0.02 |
| N#Cc1ncccn1 | -0.31 |
| COc1cncnc1 | 0.07 |
| CCOc1ccccn1 | 1.81 |
| CCCOc1cnccn1 | 1.84 |
| CN(C)c1cncnc1 | 0.46 |

The next lines start with the values.

| logP | Structure (SMILES) |
| --- | --- |
| -0.68 | NC(=O)c1ccncn1 |
| -1.2 | NC(=O)c1ncccn1 |
| -0.27 | COC(=O)c1ccncn1 |
| 0.03 | CC(=O)Nc1ccncn1 |
| -0.35 | Cc1cccnn1 |
| -0.43 | COC(=O)c1cccnn1 |
| -0.92 | NC(=O)c1cncnc1 |
| 0.63 | CCOc1cccnn1 |
| -0.31 | CCOC(=O)c1ncccn1 |
| 0.73 | COc1cnccn1 |
| 0.97 | CCOc1ccncn1 |
| 0.52 | CCOC(=O)c1cncnc1 |
| -0.96 | NC(=O)c1ccnnc1 |
| 0.03 | COC(=O)c1cncnc1 |
| 0.2 | CC(=O)c1cnccn1 |
| 0.29 | Fc1cnccn1 |

| logP | Structure (SMILES) |
| --- | --- |
| 0.08 | COc1cccnn1 |
| 0.58 | CN(C)c1ccncn1 |
| -0.41 | CC(=O)Nc1ccnnc1 |
| 0.1 | Clc1cccnn1 |
| -0.5 | NC(=O)c1cnccn1 |
| -0.25 | Nc1ccncn1 |
| -0.03 | CC(=O)Nc1cnccn1 |
| 0.28 | CCOC(=O)c1cnccn1 |
| 0.23 | CCOC(=O)c1ccnnc1 |
| -0.22 | CC(=O)Nc1cncnc1 |
| -0.71 | COC(=O)c1ncccn1 |
| -0.27 | COC(=O)c1ccnnc1 |
| -0.53 | Nc1ccnnc1 |
| 0.7 | Clc1cnccn1 |
| -0.73 | NC(=O)c1cccnn1 |
| 0.54 | COc1ccncn1 |
